9 molecules from ChEMBL document CHEMBL1129887, “Dicarboxylic acid inhibitors of phospholipase A2” (Bioorg Med Chem Lett, 1997) can be followed below.

In test [1] the test system is Mus musculus. The test is described as follows: (§1) Antiinflammatory activity of compound was measured in the phorbol-ester induced mouse chronic ear edema assay. The format is functional.
Test [2] addresses T1, Phospholipase A2, membrane associated (Homo sapiens, UniProt P14555).
T1 sequence (P14555 whole entry): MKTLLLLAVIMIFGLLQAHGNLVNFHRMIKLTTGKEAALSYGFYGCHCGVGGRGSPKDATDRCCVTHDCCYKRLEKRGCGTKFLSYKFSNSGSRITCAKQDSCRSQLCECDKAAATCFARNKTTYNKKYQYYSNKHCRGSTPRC
The test is described as follows: Compound was measured for the inhibition of human platelet PLA2 (HP-PLA2).

Test [3] has as its system Mus musculus. Described as §1. The class given is functional. This is another data set of the same source.

Molecule `C/C(=C\C(=O)O)C(=Cc1ccc2cc(OCc3ccccc3)c(OCc3ccccc3)cc2c1)c1cccc(C(=O)O)c1` returned an ED50 with Mus musculus [1] of 208 ug ear-1 dose-1. Regarding `C/C(=C\C(=O)O)C(=CCCc1ccc2cc3c(cc2c1)C(C)(C)CCC3(C)C)c1cccc(C(=O)O)c1`, the IC50 – broadly, the concentration that inhibits the measured activity by half – in test [2] amounted to 2 µM. This molecule also returned an ED50 with Mus musculus [1] of 89 ug ear-1 dose-1. In turn, `C/C(=C\C(=O)O)C(=Cc1ccc2cc3c(cc2c1)C(C)(C)CCC3(C)C)c1cccc(C(=O)O)c1` had a half-inhibitory concentration (IC50) in test [2] of 17 µM. Besides, the ED50 in the test with Mus musculus [1] turned out to be 9.37 ug ear-1 dose-1. On to `C/C(=C\C(=O)O)C(=Cc1ccc2cc(OCCCc3ccccc3)ccc2c1)c1cccc(C(=O)O)c1`, for which the ED50 in the test with Mus musculus [3] stood at 90 ug ear-1 dose-1; in the test on Mus musculus [1], 30 ug ear-1 dose-1. Besides, in test [2], 17 µM corresponded to half-maximal inhibition (IC50). In test [2], `CCCCCCCCCCOc1ccc(C=C(/C(C)=C/C(=O)O)c2cccc(C(=O)O)c2)cc1` gave a half-inhibitory concentration (IC50) of 7 µM. Take `CC1=C(/C=C/C(C)=C/C=C(/C(C)=C/C(=O)O)c2cccc(C(=O)O)c2)C(C)(C)CCC1`: the ED50 in the test on Mus musculus [1] is recorded as 160 ug ear-1 dose-1. For `CCCCCCCCCCOc1ccc2cc(C=C(/C(C)=C/C(=O)O)c3cccc(C(=O)O)c3)ccc2c1`, the IC50 in test [2] was 14 µM. Moreover, the ED50 with Mus musculus [1] is given as 31 ug ear-1 dose-1.

`C/C(=C\C(N)=O)C(=Cc1ccc2cc3c(cc2c1)C(C)(C)CCC3(C)C)c1cccc(C(N)=O)c1` gave an IC50 in test [2] of 4 µM. This molecule also showed an ED50 with Mus musculus [1] of 186 ug ear-1 dose-1.

As to `C/C(=C\C(=O)O)C(=CCCc1ccc(C23C[C@H]4C[C@@H](C2)C[C@@H](C3)C4)c(O)c1)c1cccc(C(=O)O)c1`, it took 8 µM to reach half-maximal inhibition in test [2] (IC50). In other words, the single-digit micromolar range.
